Measured values taken from US10086027B1, “Green synthesis of katononic acid nanosheets” (KING SAUD UNIVERSITY, priority 2018, dated 2018).

Legend:
Assay in all cases: Antimicrobial activity, diffusion agar technique
Assay type in all cases: cell-based
Settings in all cases: well diameter 6.0 mm, 100 μl
[1] = tested on: Geotricum candidum (RCMB 05097)
Procedure: (§1) The antimicrobial effect of the katononic acid nanosheets was evaluated against gram positive bacteria, gram negative bacteria, and fungi. The diffusion agar technique was used with a well diameter of 6.0 mm and 100 μl of katononic acid nanosheets.

[2] = tested on: Absidia corymbffera (RCMB 02564)
Procedure: as §1

[3] = tested on: Candida albicans (RCMB 05036)
Procedure: as §1

[4] = tested on: Streptococcus pyogenes (RCMB 010015)
Procedure: as §1

[5] = tested on: Staphylococcus epidermidis (RCMB 010024)
Procedure: as §1

[6] = tested on: Staphylococcus aureus (RCMB 010027)
Procedure: as §1

[7] = tested on: Klebsiella pneumoniae (RCMB 0010093)
Procedure: as §1

[8] = tested on: Proteous vulgaris (RCMB 010085)
Procedure: as §1

[9] = tested on: Salmonella enteritidis (RCMB 010084)
Procedure: as §1

C[C@@H]1[C@H](O)[C@@H](C)/C=C/C=C/C=C/C=C/C=C/C=C/C=C/[C@H](O[C@@H]2O[C@H](C)[C@@H](O)[C@H](N)[C@@H]2O)C[C@@H]2O[C@](O)(C[C@@H](O)C[C@@H](O)[C@H](O)CC[C@@H](O)C[C@@H](O)CC(=O)O[C@H]1C)C[C@H](O)[C@H]2C(=O)O [Amphotericin B]
Zone of Inhibition (±SD) [1]: 27.0 ± 0.20
Zone of Inhibition (±SD) [2]: 23.0 ± 0.10
Zone of Inhibition (±SD) [3]: 25.7 ± 0.10

CC1(C)S[C@@H]2[C@H](NC(=O)[C@H](N)c3ccccc3)C(=O)N2[C@H]1C(=O)O [Ampicillin]
Zone of Inhibition (±SD) [4]: 26.3 ± 0.34
Zone of Inhibition (±SD) [5]: 25.0 ± 0.18
Zone of Inhibition (±SD) [6]: 27.3 ± 0.14

Gentamycin
Zone of Inhibition (±SD) [7]: 26.4 ± 0.15
Zone of Inhibition (±SD) [8]: 23.4 ± 0.30
Zone of Inhibition (±SD) [9]: 25.2 ± 0.18
